# Reference: PubChem BioAssay AID1963443 (Molecular Pharmacology Branch, DTP, NCI, 2024)
# “And” between values parts separate entries of the source, which are not always exact repeats. Equal values may be shown once.
# Test system: MDA-MB-231 complex spheroids, growth inhibition
# Test: Anticancer human tumor MDA-MB-231 cell line growth inhibition [Asc];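 also: spheroids exposed to compounds for 7 days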
# Conditions: for viability, T/C: stronger effect = lower value
# Method in brief: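 Spheroid model: tumor line + HUVEC + hMSC. Single agents and combinations; top conc. at/near clinical Cmax (10 microM if undetermined), half-log dilutions. DMSO stocks at 800-fold test concentration.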
# [1] = curve of first compound, second compound 0.1 µM
# [2] = curve of first compound, second compound 0.316 µM
# [3] = curve of first compound, second compound 1 µM
# [4] = second compound 0.1 µM, first compound 0.0316 µM
# [5] = second compound 0.1 µM, first compound 0.1 µM
# [6] = second compound 0.1 µM, first compound 0.316 µM
# [7] = second compound 0.1 µM, first compound 1 µM
# [8] = second compound 0.316 µM, first compound 0.0316 µM
# [9] = second compound 0.316 µM, first compound 0.1 µM
# [10] = second compound 0.316 µM, first compound 0.316 µM
# [11] = second compound 0.316 µM, first compound 1 µM
# [12] = second compound 1 µM, first compound 0.0316 µM
# [13] = second compound 1 µM, first compound 0.1 µM
# [14] = second compound 1 µM, first compound 0.316 µM
# [15] = second compound 1 µM, first compound 1 µM
structure (smiles),measurement,setting,value
NC(=O)C(=Cn1cnc(-c2cc(C(F)(F)F)cc(C(F)(F)F)c2)n1)c1cncnc1 + CCN1C(C(=O)NC23CCC(C(=O)O)(CC2)CC3)C(c2cccc(Cl)c2F)C2(C(=O)Nc3cc(Cl)ccc32)C12CCCCC2,IC50,"curve of first compound, second compound 0.03 µM",78.3 nM
same,IC50,"curve of first compound, second compound 0.0949 µM",70.5 nM
same,IC50,"curve of first compound, second compound 0.3 µM",84.7 nM
same,IC50,"curve of first compound, second compound 0.949 µM",84.5 nM
same,IC50,"curve of first compound, second compound 3 µM",67.4 nM
same,"viability, T/C","second compound 0.03 µM, first compound 0.000949 µM",103%
same,"viability, T/C","second compound 0.03 µM, first compound 0.003 µM",92.8%
same,"viability, T/C","second compound 0.03 µM, first compound 0.00949 µM",82.4%
same,"viability, T/C","second compound 0.03 µM, first compound 0.03 µM",60%
same,"viability, T/C","second compound 0.03 µM, first compound 0.0949 µM",52.5%
same,"viability, T/C","second compound 0.03 µM, first compound 0.3 µM",23.6%
same,"viability, T/C","second compound 0.0949 µM, first compound 0.000949 µM",111%
same,"viability, T/C","second compound 0.0949 µM, first compound 0.003 µM",103%
same,"viability, T/C","second compound 0.0949 µM, first compound 0.00949 µM",90.4%
same,"viability, T/C","second compound 0.0949 µM, first compound 0.03 µM",62.6%
same,"viability, T/C","second compound 0.0949 µM, first compound 0.0949 µM",47.3%
same,"viability, T/C","second compound 0.0949 µM, first compound 0.3 µM",21.7%
same,"viability, T/C","second compound 0.3 µM, first compound 0.000949 µM",112%
same,"viability, T/C","second compound 0.3 µM, first compound 0.003 µM",102%
same,"viability, T/C","second compound 0.3 µM, first compound 0.00949 µM",87%
same,"viability, T/C","second compound 0.3 µM, first compound 0.03 µM",63.1%
same,"viability, T/C","second compound 0.3 µM, first compound 0.0949 µM",52.5%
same,"viability, T/C","second compound 0.3 µM, first compound 0.3 µM",25%
same,"viability, T/C","second compound 0.949 µM, first compound 0.000949 µM",117%
same,"viability, T/C","second compound 0.949 µM, first compound 0.003 µM",107%
same,"viability, T/C","second compound 0.949 µM, first compound 0.00949 µM",93.4%
same,"viability, T/C","second compound 0.949 µM, first compound 0.03 µM",66.9%
same,"viability, T/C","second compound 0.949 µM, first compound 0.0949 µM",50.4%
same,"viability, T/C","second compound 0.949 µM, first compound 0.3 µM",26.8%
same,"viability, T/C","second compound 3 µM, first compound 0.000949 µM",102%
same,"viability, T/C","second compound 3 µM, first compound 0.003 µM",94.2%
same,"viability, T/C","second compound 3 µM, first compound 0.00949 µM",79.4%
same,"viability, T/C","second compound 3 µM, first compound 0.03 µM",59.9%
same,"viability, T/C","second compound 3 µM, first compound 0.0949 µM",46.9%
same,"viability, T/C","second compound 3 µM, first compound 0.3 µM",31.6%
C=C(F)C(=O)N1CCN(c2nc(OCC3CCCN3C)nc3c2CCN(c2cccc4cccc(Cl)c24)C3)CC1CC#N (configuration not stated) + CNC(C)C(=O)NC1CN(S(=O)(=O)c2cccc(S(=O)(=O)N3CCC4CCC(C(=O)NC(c5ccccc5)c5ccccc5)N4C(=O)C(NC(=O)C(C)NC)C3)c2)CCC2CCC(C(=O)NC(c3ccccc3)c3ccccc3)N2C1=O,IC50,"curve of first compound, second compound 0.01 µM",< 31.6 nM
same,IC50,"curve of first compound, second compound 0.0316 µM",< 31.6 nM
same,IC50,[1],< 31.6 nM
same,IC50,[2],< 31.6 nM
same,IC50,[3],< 31.6 nM
same,"viability, T/C","second compound 0.01 µM, first compound 0.0316 µM",1.99%
same,"viability, T/C","second compound 0.01 µM, first compound 0.1 µM",2.81%
same,"viability, T/C","second compound 0.01 µM, first compound 0.316 µM",1.5%
same,"viability, T/C","second compound 0.01 µM, first compound 1 µM",1.02%
same,"viability, T/C","second compound 0.01 µM, first compound 3.16 µM",0.39%
same,"viability, T/C","second compound 0.01 µM, first compound 10 µM",0.09%
same,"viability, T/C","second compound 0.0316 µM, first compound 0.0316 µM",1.12%
same,"viability, T/C","second compound 0.0316 µM, first compound 0.1 µM",2.63%
same,"viability, T/C","second compound 0.0316 µM, first compound 0.316 µM",1.75%
same,"viability, T/C","second compound 0.0316 µM, first compound 1 µM",1.07%
same,"viability, T/C","second compound 0.0316 µM, first compound 3.16 µM",0.75%
same,"viability, T/C","second compound 0.0316 µM, first compound 10 µM",0.93%
same,"viability, T/C",[4],0.94%
same,"viability, T/C",[5],1.79%
same,"viability, T/C",[6],1.68%
same,"viability, T/C",[7],0.86%
same,"viability, T/C","second compound 0.1 µM, first compound 3.16 µM",0.38%
same,"viability, T/C","second compound 0.1 µM, first compound 10 µM",0.08%
same,"viability, T/C",[8],0.86%
same,"viability, T/C",[9],1.12%
same,"viability, T/C",[10],1.54%
same,"viability, T/C",[11],1.37%
same,"viability, T/C","second compound 0.316 µM, first compound 3.16 µM",0.42%
same,"viability, T/C","second compound 0.316 µM, first compound 10 µM",0.08%
same,"viability, T/C",[12],1.4%
same,"viability, T/C",[13],1.56%
same,"viability, T/C",[14],1.18%
same,"viability, T/C",[15],1.49%
same,"viability, T/C","second compound 1 µM, first compound 3.16 µM",0.43%
same,"viability, T/C","second compound 1 µM, first compound 10 µM",0.98%
O=C(c1ccc(F)c(F)c1Nc1ccc(I)cc1F)N1CC(O)([C@@H]2CCCCN2)C1 + Cc1c(S(C)(=O)=O)c(-c2cc(F)cc(N3CCN(c4ccc(NS(=O)(=O)c5ccc(NC(CCN6CCC(C(=O)OCCCP(=O)(O)O)CC6)CSc6ccccc6)c(S(=O)(=O)C(F)(F)F)c5)cc4)CC3)c2)c(-c2ccc(Cl)cc2)n1C(C)C,IC50,[1],76.3 nM
same,IC50,[2],103 nM
same,IC50,[3],71.3 nM
same,IC50,"curve of first compound, second compound 3.16 µM",117 nM
same,IC50,"curve of first compound, second compound 10 µM",116 nM
same,"viability, T/C","second compound 0.1 µM, first compound 0.00316 µM",87.8%
same,"viability, T/C","second compound 0.1 µM, first compound 0.01 µM",68.8%
same,"viability, T/C",[4],60.6%
same,"viability, T/C",[5],51.9%
same,"viability, T/C",[6],24.9%
same,"viability, T/C",[7],1.38%
same,"viability, T/C","second compound 0.316 µM, first compound 0.00316 µM",86.3%
same,"viability, T/C","second compound 0.316 µM, first compound 0.01 µM",61.9%
same,"viability, T/C",[8],64.7%
same,"viability, T/C",[9],54.8%
same,"viability, T/C",[10],14.6%
same,"viability, T/C",[11],0.96%
same,"viability, T/C","second compound 1 µM, first compound 0.00316 µM",96.5%
same,"viability, T/C","second compound 1 µM, first compound 0.01 µM",59.5%
same,"viability, T/C",[12],66.7%
same,"viability, T/C",[13],60.3%
same,"viability, T/C",[14],10.8%
same,"viability, T/C",[15],1.16%
same,"viability, T/C","second compound 3.16 µM, first compound 0.00316 µM",81.9%
same,"viability, T/C","second compound 3.16 µM, first compound 0.01 µM",56.5%
same,"viability, T/C","second compound 3.16 µM, first compound 0.0316 µM",60.4%
same,"viability, T/C","second compound 3.16 µM, first compound 0.1 µM",57.2%
same,"viability, T/C","second compound 3.16 µM, first compound 0.316 µM",5.78%
same,"viability, T/C","second compound 3.16 µM, first compound 1 µM",0.65%
same,"viability, T/C","second compound 10 µM, first compound 0.00316 µM",93.9%
same,"viability, T/C","second compound 10 µM, first compound 0.01 µM",93.1%
same,"viability, T/C","second compound 10 µM, first compound 0.0316 µM",89%
same,"viability, T/C","second compound 10 µM, first compound 0.1 µM",57.1%
same,"viability, T/C","second compound 10 µM, first compound 0.316 µM",0.97%
same,"viability, T/C","second compound 10 µM, first compound 1 µM",0.83%
CCN1CCN(Cc2ccc(Nc3ncc(F)c(-c4cc(F)c5nc(C)n(C(C)C)c5c4)n3)nc2)CC1,"viability, T/C",compound 0.00316 µM,91.9% and 79.5% and 77%
same,"viability, T/C",compound 0.01 µM,92.6% and 86.9% and 80%
same,"viability, T/C",compound 0.0316 µM,78.5% and 79.9% and 88.6%
same,"viability, T/C",compound 0.1 µM,64.9% and 54.5% and 74.4%
same,"viability, T/C",compound 0.316 µM,51.7% and 48% and 64.4%
same,"viability, T/C",compound 1 µM,50.2% and 48.8% and 72%
same,IC50,curve of compound,882 nM and 238 nM and > 1000 nM
